Test results: US20230405552A1, “Super Absorbent Polymer and Preparation Method Thereof” (LG Chem, Ltd., priority 2021, published 2023)

Tests used:
[1] = system: Proteus mirabilis (P. mirabilis, ATCC 29906) standard strain; assay: Antibacterial property of polymerizable antibacterial monomer against Proteus mirabilis (absorbance at 600 nm); type: cell-based; conditions: 18 hours at 35° C.; for Optical density: diluted to 1/5, 600 nm
Procedure: The monomer was put in a 50 ml conical tube according to the content of Table 1 below, and then 25 ml of a nutrient broth (Becton Dickinson) solution, to which 3000±300 CFU/ml of E. coli (ATCC 25922) standard strain was inoculated, was injected. After culturing for 18 hours in a shaking incubator (Vision Scientific, VS-37SIF) at 35° C., the culture solution was diluted to ⅕ concentration using 1× PBS (Gibco). The absorbance of the diluted solution was measured at a wavelength of 600 nm using a UV-Vis spectrophotometer. At this time, the absorbance measured after culturing the nutrient broth solution to which the bacteria was inoculated without the addition of the monomer was compared to the absorbance of the sample to which the monomer was added, and the degree of growth of the bacteria was examined. The bacterial growth-inhibitory rate was calculated according to the following Equation 1, and the results are shown in Table 1 below. To examine the antibacterial properties of the monomer 2-(tert-butylamino)ethyl methacrylate included in Examples and the monomer 2-(dimethylamino)ethyl methacrylate against Proteus mirabilis, the bacterial growth-inhibitory rate (%) against Proteus mirabilis (P. mirabilis) was calculated in the same manner as in the antibacterial property evaluation for E. coli, except that a nutrient broth solution, to which 3000±300 CFU/ml of Proteus mirabilis (P. mirabilis, ATCC 29906) standard strain was inoculated instead of E. coli (ATCC 25922), was used. In calculating the bacteriostatic reduction rate using Equation 1, CReference represents CFU of bacteria after culturing with the monomer of Comparative Experimental Example 2-1 without the antibacterial material.

[2] = system: E. coli (ATCC 25922) standard strain; assay: Antibacterial property of polymerizable antibacterial monomer against E. coli (absorbance at 600 nm); type: cell-based, Escherichia coli; conditions: 18 hours at 35° C.; for Optical density: diluted to 1/5, 600 nm
Procedure: The monomer was put in a 50 ml conical tube according to the content of Table 1 below, and then 25 ml of a nutrient broth (Becton Dickinson) solution, to which 3000±300 CFU/ml of E. coli (ATCC 25922) standard strain was inoculated, was injected. After culturing for 18 hours in a shaking incubator (Vision Scientific, VS-37SIF) at 35° C., the culture solution was diluted to ⅕ concentration using 1× PBS (Gibco). The absorbance of the diluted solution was measured at a wavelength of 600 nm using a UV-Vis spectrophotometer. At this time, the absorbance measured after culturing the nutrient broth solution to which the bacteria was inoculated without the addition of the monomer was compared to the absorbance of the sample to which the monomer was added, and the degree of growth of the bacteria was examined. The bacterial growth-inhibitory rate was calculated according to the following Equation 1, and the results are shown in Table 1 below. Bacterial growth-inhibitory rate(%)=[(ODReference−ODsample)/ODReference]*100 [Equation 1] in Equation, ODReference represents absorbance of the culture medium of Comparative Experimental Example 1-1 without the antibacterial material, and ODsample represents absorbance of the culture medium with the antibacterial material.

[3] = 0.03 g monomer in 25 ml nutrient broth
[4] = 0.05 g monomer in 25 ml nutrient broth
[5] = 0.07 g monomer in 25 ml nutrient broth

Row | SMILES | Bacterial growth-inhibitory rate (%) [1, 3] | Optical density [1, 3] | Bacterial growth-inhibitory rate (%) [1, 4] | Optical density [1, 4] | Bacterial growth-inhibitory rate (%) [1, 5] | Optical density [1, 5] | Bacterial growth-inhibitory rate (%) [2, 3] | Optical density [2, 3] | Bacterial growth-inhibitory rate (%) [2, 4] | Optical density [2, 4] | Bacterial growth-inhibitory rate (%) [2, 5] | Optical density [2, 5]
1 | C=C(C)C(=O)OCCN(C)C [2-(dimethylamino)ethyl methacrylate] | 3.37% | 0.172 | 20.22% | 0.142 | 67.98% | 0.057 | 0.00% | 0.196 | 3.67% | 0.189 | 23.98% | 0.149
2 | C=C(C)C(=O)OCCNC(C)(C)C [2-(tert-butylamino)ethyl methacrylate] | 19.10% | 0.144 | 43.82% | 0.100 | 94.94% | 0.009 | 5.61% | 0.185 | 64.29% | 0.070 | 95.41% | 0.009
